Assay results from patent publication US20040204357A1, “Modulator of the megalin-mediated uptake of radiotherapeutics and/or radiodiagnostics into kidney cells and their use in therapy and diagnostics” (priority 2003, published 2004).
Read-outs that look alike come from different tables or passages of the source. Square brackets hold non-standard residues; d marks the D form. Peptide text beside a SMILES is read from it. * marks the point of attachment. X1 = NCCCC[C@H](NC(=O)[C@H](CS)NC(=O)[C@H](CCCCN)NC(=O)[C@@H](N)CNC(=O)C*)C(N)=O; NMeF = CN[C@@H](Cc1ccccc1)C(=O)O; hCys = N[C@@H](CCS)C(=O)O

How the values were obtained:
[1] = Biodistribution of radiopharmaceuticals in RAP-deficient mice and control strain C57BL/6J, organs, urine and faeces counted for radioactivity; assay type: in vivo; settings: mouse, total radioactivity, single intravenous injection 1-2 μCi/animal, 24 hours post injection, n = 3; for tissue uptake at 24 h: kidneys; for dose excreted at 24 h: urine, read-out: Urine (% ID)
Procedure: In order to investigate, whether megalin and cubilin play a role in the renal uptake of radiopharmaceuticals into cells of the proximal tubule, in-vivo experiments with RAP-deficient mice (Jax®Mice, strain B6.129S7-Lrpap1^tmlHer) were carried out.
RAP is mainly located in the endoplasmatic reticulum where it is responsible for the proper folding and escort of megalin to the plasma membrane (Willnow, 1995). RAP also binds to other members of the LDL-receptor family, such as the receptor LRP (LDL-receptor related protein) which is not expressed in the kidneys but mostly in the liver and the brain. In RAP-deficient mice the megalin expression in the kidneys is reduced by about 80% (Bim, 2000) and also the cubilin expression is reduced by some extend. These mice are therefore a representative model to study the megalin dependence of the uptake of radiopharmaceuticals. There exist also megalin knock-out mice which have the disadvantage that only 2% of the bred animals survive to adulthood due to several malformations especially of the forebrain (Leheste, 1999).
RAP-deficient mice (stock #002987) and mice of the control strain C57BL/6J (Jax®Mice, stock #000664) were treated with a single intravenous injection (1-2 μCi/animal) of the following radiopharmaceuticals:
After 24 hours post injection the animals were killed and the organs as well as the collected urine and faeces counted for radioactivity. […]

[2] = target: megalin (Homo sapiens, UniProt P98164); settings: cited from earlier work
[3] = B6.129S7-Lrpap1^tmlHer (RAP-deficient), RAP−/− (RAP-deficient) mice

megalin, sequence (P98164 26-4655, species assumed): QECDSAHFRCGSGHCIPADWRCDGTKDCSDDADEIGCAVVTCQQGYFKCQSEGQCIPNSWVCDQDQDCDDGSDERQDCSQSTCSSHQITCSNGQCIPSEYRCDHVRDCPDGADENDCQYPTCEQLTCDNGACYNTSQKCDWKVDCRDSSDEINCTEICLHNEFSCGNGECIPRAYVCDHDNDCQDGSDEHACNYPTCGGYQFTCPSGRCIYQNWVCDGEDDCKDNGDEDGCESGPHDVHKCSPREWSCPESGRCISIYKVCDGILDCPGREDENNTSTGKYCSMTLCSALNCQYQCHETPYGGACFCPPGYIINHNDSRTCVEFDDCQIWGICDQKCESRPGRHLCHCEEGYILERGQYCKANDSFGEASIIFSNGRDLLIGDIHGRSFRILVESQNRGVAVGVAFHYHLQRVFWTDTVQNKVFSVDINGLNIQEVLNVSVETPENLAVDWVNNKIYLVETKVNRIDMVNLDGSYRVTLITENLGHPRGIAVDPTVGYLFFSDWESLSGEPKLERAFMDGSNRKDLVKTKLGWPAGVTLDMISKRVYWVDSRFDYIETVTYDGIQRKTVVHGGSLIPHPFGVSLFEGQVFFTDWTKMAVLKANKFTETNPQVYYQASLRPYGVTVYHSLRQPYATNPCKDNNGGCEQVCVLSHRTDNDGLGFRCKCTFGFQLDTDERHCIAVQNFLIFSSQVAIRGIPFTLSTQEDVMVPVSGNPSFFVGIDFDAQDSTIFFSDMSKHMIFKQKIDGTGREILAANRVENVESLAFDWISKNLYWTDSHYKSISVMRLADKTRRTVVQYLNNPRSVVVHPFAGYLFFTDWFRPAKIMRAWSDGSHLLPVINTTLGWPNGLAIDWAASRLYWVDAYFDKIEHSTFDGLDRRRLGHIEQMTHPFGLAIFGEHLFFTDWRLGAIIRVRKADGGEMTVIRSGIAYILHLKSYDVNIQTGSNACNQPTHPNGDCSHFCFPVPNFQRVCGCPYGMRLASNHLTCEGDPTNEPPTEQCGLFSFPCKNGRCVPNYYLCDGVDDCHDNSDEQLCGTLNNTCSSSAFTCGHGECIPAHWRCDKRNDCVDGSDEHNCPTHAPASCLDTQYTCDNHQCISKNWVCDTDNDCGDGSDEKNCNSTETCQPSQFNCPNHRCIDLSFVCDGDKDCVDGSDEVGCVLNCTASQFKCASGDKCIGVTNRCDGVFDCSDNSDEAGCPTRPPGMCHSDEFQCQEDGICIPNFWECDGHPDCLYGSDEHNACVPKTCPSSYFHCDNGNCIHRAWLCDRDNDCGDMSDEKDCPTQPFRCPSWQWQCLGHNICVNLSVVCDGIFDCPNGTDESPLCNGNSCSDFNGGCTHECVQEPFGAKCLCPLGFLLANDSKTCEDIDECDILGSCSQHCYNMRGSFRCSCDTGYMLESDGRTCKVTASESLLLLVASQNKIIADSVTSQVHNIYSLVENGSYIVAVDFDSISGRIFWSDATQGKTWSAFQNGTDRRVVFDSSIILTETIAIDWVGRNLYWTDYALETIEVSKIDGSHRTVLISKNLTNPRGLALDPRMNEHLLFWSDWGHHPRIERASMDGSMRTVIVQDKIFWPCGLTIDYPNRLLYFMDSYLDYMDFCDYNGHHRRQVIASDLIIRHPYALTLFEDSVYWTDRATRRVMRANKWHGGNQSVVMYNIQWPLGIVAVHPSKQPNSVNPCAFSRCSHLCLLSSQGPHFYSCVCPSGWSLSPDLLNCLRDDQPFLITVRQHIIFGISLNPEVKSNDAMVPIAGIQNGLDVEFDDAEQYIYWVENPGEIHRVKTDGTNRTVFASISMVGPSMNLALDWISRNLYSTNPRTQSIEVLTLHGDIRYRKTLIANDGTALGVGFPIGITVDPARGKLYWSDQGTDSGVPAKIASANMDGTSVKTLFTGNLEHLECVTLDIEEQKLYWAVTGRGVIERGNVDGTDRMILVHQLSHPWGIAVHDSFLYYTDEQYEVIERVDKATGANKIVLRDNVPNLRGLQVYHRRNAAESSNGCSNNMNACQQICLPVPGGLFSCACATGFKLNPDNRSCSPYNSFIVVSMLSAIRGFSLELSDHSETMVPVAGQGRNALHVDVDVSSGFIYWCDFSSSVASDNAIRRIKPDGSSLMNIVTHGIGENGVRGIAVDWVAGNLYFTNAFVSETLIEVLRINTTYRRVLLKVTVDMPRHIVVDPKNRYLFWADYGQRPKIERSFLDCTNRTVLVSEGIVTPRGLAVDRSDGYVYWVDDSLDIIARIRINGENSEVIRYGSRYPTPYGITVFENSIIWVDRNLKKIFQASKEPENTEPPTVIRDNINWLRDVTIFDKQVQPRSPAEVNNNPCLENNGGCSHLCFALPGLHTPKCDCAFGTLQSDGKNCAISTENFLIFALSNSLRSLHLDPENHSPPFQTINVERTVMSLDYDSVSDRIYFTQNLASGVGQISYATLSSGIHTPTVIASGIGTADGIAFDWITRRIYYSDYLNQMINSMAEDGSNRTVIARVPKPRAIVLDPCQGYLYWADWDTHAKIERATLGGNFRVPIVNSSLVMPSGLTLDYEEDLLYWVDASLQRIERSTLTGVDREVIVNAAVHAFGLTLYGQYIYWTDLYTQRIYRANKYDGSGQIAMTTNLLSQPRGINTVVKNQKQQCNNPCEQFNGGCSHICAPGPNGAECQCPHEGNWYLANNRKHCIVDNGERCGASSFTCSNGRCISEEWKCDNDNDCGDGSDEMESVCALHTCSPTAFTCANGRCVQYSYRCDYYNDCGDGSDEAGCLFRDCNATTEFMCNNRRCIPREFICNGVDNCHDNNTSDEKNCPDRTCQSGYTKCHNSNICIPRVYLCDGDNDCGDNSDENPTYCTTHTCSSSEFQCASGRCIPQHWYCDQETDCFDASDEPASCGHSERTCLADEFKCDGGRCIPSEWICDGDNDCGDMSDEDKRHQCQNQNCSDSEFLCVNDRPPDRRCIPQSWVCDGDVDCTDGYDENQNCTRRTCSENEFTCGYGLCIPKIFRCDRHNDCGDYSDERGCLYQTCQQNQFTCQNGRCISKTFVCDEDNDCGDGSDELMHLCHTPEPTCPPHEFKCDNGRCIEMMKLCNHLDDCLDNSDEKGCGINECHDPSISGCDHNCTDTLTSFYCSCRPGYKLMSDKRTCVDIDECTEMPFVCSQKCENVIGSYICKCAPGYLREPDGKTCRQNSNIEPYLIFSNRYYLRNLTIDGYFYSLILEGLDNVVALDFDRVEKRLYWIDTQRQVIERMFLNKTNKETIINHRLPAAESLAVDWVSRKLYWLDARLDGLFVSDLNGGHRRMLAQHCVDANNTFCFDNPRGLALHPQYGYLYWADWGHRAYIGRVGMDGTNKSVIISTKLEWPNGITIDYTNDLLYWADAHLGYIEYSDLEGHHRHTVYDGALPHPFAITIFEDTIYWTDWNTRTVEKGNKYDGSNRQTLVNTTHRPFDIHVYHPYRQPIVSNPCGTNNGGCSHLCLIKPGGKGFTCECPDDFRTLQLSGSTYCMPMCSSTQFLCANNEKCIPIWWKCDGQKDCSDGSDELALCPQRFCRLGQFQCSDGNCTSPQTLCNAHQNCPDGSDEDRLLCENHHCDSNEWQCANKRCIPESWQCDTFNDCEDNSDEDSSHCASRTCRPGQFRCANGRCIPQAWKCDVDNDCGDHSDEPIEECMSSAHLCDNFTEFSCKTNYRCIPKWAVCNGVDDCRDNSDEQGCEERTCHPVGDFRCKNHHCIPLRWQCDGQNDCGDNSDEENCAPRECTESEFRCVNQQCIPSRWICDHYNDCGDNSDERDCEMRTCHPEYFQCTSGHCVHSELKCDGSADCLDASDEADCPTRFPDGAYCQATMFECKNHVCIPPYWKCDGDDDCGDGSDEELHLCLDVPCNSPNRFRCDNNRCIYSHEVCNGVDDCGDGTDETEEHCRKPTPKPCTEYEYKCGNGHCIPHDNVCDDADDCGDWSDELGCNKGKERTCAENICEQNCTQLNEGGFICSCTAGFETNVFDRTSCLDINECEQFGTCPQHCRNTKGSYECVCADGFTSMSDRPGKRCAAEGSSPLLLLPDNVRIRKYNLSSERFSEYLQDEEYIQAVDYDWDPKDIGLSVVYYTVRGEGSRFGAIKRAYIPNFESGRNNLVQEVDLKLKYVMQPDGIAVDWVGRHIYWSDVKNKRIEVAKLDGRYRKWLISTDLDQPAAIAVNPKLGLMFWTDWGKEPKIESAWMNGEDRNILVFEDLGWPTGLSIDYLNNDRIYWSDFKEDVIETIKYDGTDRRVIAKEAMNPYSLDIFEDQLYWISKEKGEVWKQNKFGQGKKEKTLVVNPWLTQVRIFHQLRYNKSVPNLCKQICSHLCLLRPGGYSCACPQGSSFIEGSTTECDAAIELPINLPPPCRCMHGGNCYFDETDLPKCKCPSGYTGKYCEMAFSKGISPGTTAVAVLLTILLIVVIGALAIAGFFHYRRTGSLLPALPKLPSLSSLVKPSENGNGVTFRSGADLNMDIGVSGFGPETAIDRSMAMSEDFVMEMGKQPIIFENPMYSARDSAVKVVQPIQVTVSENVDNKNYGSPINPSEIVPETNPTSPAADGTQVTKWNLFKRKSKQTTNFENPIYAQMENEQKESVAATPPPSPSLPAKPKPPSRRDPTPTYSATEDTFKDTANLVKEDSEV

| Molecule | tissue uptake at 24 h [1, 3] [%ID/g] | dose excreted at 24 h [1, 3] [%] | tissue uptake at 24 h ([1]; Control mice (C57BL/6J)) [%ID/g] | dose excreted at 24 h ([1]; Control mice (C57BL/6J)) [%] | Affinity of binding to megalin [2] |
| --- | --- | --- | --- | --- | --- |
| CC(C)[C@@H]1NC(=O)[C@H](CCCCN)NC(=O)[C@@H](Cc2c[nH]c3ccccc23)NC(=O)[C@H](Cc2ccc(O)cc2)NC(=O)[C@H](Cc2ccccc2)N(C)C(=O)[C@H](CCSCC(=O)NC[C@H](N)C(=O)N[C@@H](CCCCN)C(=O)N[C@@H](CS)C(=O)N[C@@H](CCCCN)C(N)=O)NC1=O [Tc-99m-NeoTect ®, metal not drawn] (cyclo([hCys](X1)[NMeF]Y[dW]KV)) | 99.3 | 40.4 | 261 | 23.6 |  |
| RAP: 39 kDa chaperone-like protein that binds tightly to megalin |  |  |  |  | high affinity in the nanomolar range |
